Experimental data from US20190194179A1, “ANTIBIOTIC COMPOUNDS” (DISCUVA LTD., priority 2016, published 2019).
Where a name gives a salt, the structure may show the parent alone.

Test system: Neisseria gonorrhoeae
Experiment: EC50 determination: plate-based broth growth assay (absorbance at 600 nm) of Neisseria gonorrhoeae
Assay type: cell-based
Settings: absorbance 600 nm after 20 hours at 37° C./5% CO2, read-out: IC50 (Inhibitory concentration) against Neisseria gonorrhoeae
In short: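 Mid-log culture diluted to ~10^5 cells/ml as inoculum and grown 20 hours at 37° C./5% CO2 across a 10-point compound dilution series. Growth read as absorbance at 600 nm; EC50 taken from transformed data as the concentration giving 50% response relative to no-compound controls.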

Row | IC50 | SMILES
1 | ≤ 100 nM | Clc1ccc2oc(Nc3nc4ccccc4o3)nc2c1 [Example 162, N-(Benzo[d]oxazol-2-yl)-5-chlorobenzo[d] oxazol-2-amine]
2 | ≤ 100 nM | FC(F)(F)c1ccc2oc(Nc3nnc(C4CC4)o3)nc2c1 [Example 103, N-(5-Cyclopropyl-1,3,4-oxadiazol-2-yl)-5-(trifluoromethyl)benzo[d]oxazol-2-amine]
3 | ≤ 1000 nM | Clc1ccc2nc(Nc3ccon3)oc2c1 [Example 46, 6-Chloro-N-(isoxazol-3-yl)benzo[d]oxazol-2-amine]
4 | ≤ 100 nM | COc1cc2oc(Nc3nnco3)nc2cc1Cl [Example 190, 5-Chloro-6-methoxy-N-(1,3,4-oxadiazol-2-yl)benzo[d]ox-azol-2-amine]
5 | ≤ 1000 nM | Clc1cccc2nc(Nc3nnco3)oc12 [Example 57, 7-Chloro-N-(1,3,4-oxadiazol-2-yl)benzo[d]oxazol-2-amine]
6 | ≤ 1000 nM | O=C(NC1CC1)c1csc(Nc2nc3cc(F)ccc3o2)n1 [Example 18, N-Cyclopropyl-2-((5-fluorobenzo[d]oxazol-2-yl)amino)thiazole-4-carboxamide]
7 | ≤ 1000 nM | Clc1ccc2nc(Nc3nnco3)oc2c1 [Example 115, 6-Chloro-N-(1,3,4-oxadiazol-2-yl)benzo[d]oxazol-2-amine]
8 | ≤ 100000 nM | Fc1ccc2oc(Nc3nc4cnccc4o3)nc2c1 [Example 160, N-(5-Fluorobenzo[d]oxazol-2-yl)oxazolo[4,5-c]pyridin-2-amine]
9 | ≤ 100000 nM | Cc1nnc(Nc2nc3cc(C(F)(F)F)c(Cl)cc3n2C)[nH]1 [Example 144, 6-Chloro-1-methyl-N-(5-methyl-4H-1,2,4-triazol-3-yl)-5-(trifluoromethyl)-1H-benzo[d]imidazol-2-amine]
10 | ≤ 1000 nM | CN1CCN(c2cnc(Nc3nc4ccc(C(F)(F)F)cc4o3)s2)CC1 [Example 35, N-(5-(4-Methylpiperazin-1-yl)thiazol-2-yl)-6-(trifluoromethyl)benzo[d]oxazol-2-amine]
11 | ≤ 100000 nM | O=C(O)c1nnc(Nc2nc3ccc(F)cc3o2)o1 [Example 223, Sodium 5-((6-fluorobenzo[d]oxazol-2-yl)amino)-1,3,4-oxadiazole-2-carboxylate]
12 | ≤ 1000 nM | COCCn1c(C)nnc1Nc1nc2cc(C(F)(F)F)c(Cl)cc2o1 [Example 142, 6-Chloro-N-(4-(2-methoxyethyl)-5-methyl-4H-1,2,4-triazol-3-yl)-5-(trifluoromethyl)benzo[d]oxazol-2-amine]
13 | ≤ 1000 nM | O=C(NC1CC1)c1csc(Nc2nc3cc(C(F)(F)F)ccc3o2)n1 [Example 1, N-Cyclopropyl-2-((5-(trifluoromethyl)benzo[d]oxazol-2-yl)amino)thiazole-4-carboxamide]
14 | ≤ 100 nM | O=C(NC1CC1)c1csc(Nc2nc3ccc(Cl)cc3o2)n1 [Example 20, 2-((6-Chlorobenzo[d]oxazol-2-yl)amino)-N-cyclopropylthiazole-4-carboxamide]
15 | ≤ 1000 nM | CN1CCC[C@H]1c1nnc(Nc2nc3cc(C(F)(F)F)ccc3o2)o1 [Example 126, (S)-N-(5-(1-Methylpyrrolidin-2-yl)-1,3,4-oxadiazol-2-yl)-5-(trifluoromethyl)benzo[d]oxazol-2-amine]
16 | ≤ 100000 nM | CC(=O)N(C)c1ccc2nc(Nc3nnco3)oc2c1 [Example 215, N-(2-((1,3,4-Oxadiazol-2-yl)amino)benz-o[d]oxazol-6-yl)-N-methylacetamide]
17 | ≤ 100000 nM | Cn1c(Nc2nnco2)nc2ccc(Cl)cc21 [Example 92, N-(6-Chloro-1-methyl-1H-benzo[d]imidazol-2-yl)-1,3,4-oxadiazol-2-amine]
18 | ≤ 1000 nM | FC(F)(F)c1ccc2nc(Nc3nnco3)oc2c1 [Example 114, N-(1,3,4-Oxadiazol-2-yl)-6-(trifluoromethyl)benzo[d]oxazol-2-amine]
19 | ≤ 100 nM | Cc1cc(Nc2nc3cc(C(F)(F)F)c(Cl)cc3o2)no1 [Example 42, 6-Chloro-N-(5-methylisoxazol-3-yl)-5-(trifluoromethyl)benzo[d]oxazol-2-amine]
20 | ≤ 10000 nM | N#CC1CCN(Cc2nnc(Nc3nc4cc(C(F)(F)F)ccc4o3)o2)C1 (centres unmarked) [Example 76, 1-((5-((5-(triFluoromethyl)benzo[d]oxazol-2-yl)amino)-1,3,4-oxadiazol-2-yl)methyl)pyrrolidine-3-carbonitrile]
21 | ≤ 1000 nM | Cc1cnc(Nc2nc3cc(C(F)(F)F)ccc3o2)o1 [Example 112, N-(5-Methyloxazol-2-yl)-5-(trifluoromethyl)benzo[d]oxazol-2-amine]
22 | ≤ 10000 nM | Cc1nnc(Nc2nc3cncc(Cl)c3o2)o1 [Example 64, 7-Chloro-N-(5-methyl-1,3,4-oxadiazol-2-yl)oxazolo[4,5-c]pyridin-2-amine]

Continued, compound first:

Row | SMILES | IC50
23 | Clc1cccc2nc(Nc3nnc(CN4CCCC4)[nH]3)oc12 [Example 131, 7-Chloro-N-(5-(pyrrolidin-1-ylmethyl)-4H-1,2,4-triazol-3-yl)benzo[d]oxazol-2-amine] | ≤ 1000 nM
24 | FC(F)(F)c1cc2oc(Nc3nc4cnccc4o3)nc2cn1 [Example 161, N-(Oxazolo[4,5-c]pyridin-2-yl)-6-(trifluoromethyl)oxazolo[4,5-c]pyridin-2-amine] | ≤ 100000 nM
25 | Cc1nnc(Nc2nc3ccc(C(F)(F)F)cc3[nH]2)o1 [Example 83, 5-Methyl-N-(6-(trifluoromethyl)-1H-benzo[d]imidazol-2-yl)-1,3,4-oxadiazol-2-amine] | ≤ 1000 nM
26 | Clc1ccc2nc(Nc3cocn3)oc2c1 [Example 221, 6-Chloro-N-(oxazol-4-yl)benzo[d]oxazol-2-amine] | ≤ 1000 nM
27 | NC(=O)c1csc(Nc2nc3ccc(C(F)(F)F)cc3o2)n1 [Example 101, 2-((6-(trifluoromethyl)benzo[d]oxazol-2-yl)amino)thiazole-4-carboxamide] | ≤ 1000 nM
28 | c1nnc(Nc2nc3ccc(N4CCCCC4)cc3o2)o1 [Example 184, N-(1,3,4-Oxadiazol-2-yl)-6-(piperidin-1-yl)benzo[d]ox-azol-2-amine] | ≤ 1000 nM
29 | Cn1ccc(Nc2nc3cc(C(F)(F)F)ccc3o2)n1 [Example 38, N-(1-Methyl-1H-pyrazol-3-yl)-5-(trifluoromethyl)benzo[d]oxazol-2-amine] | ≤ 10000 nM
30 | Cc1nnc(Nc2nc3cnc(C(F)(F)F)cc3o2)o1 [Example 53, N-(5-Methyl-1,3,4-oxadiazol-2-yl)-6-(trifluoromethyl)oxazolo[4,5-c]pyridin-2-amine] | ≤ 10000 nM
31 | Cc1nnc(Nc2nc3ccc(F)cc3o2)o1 [Example 54, 6-Fluoro-N-(5-methyl-1,3,4-oxadiazol-2-yl)benzo[d]oxazol-2-amine] | ≤ 1000 nM
32 | Clc1ccc2nc(Nc3nnc(C4CC4)o3)oc2c1 [Example 175, 6-Chloro-N-(5-cyclopropyl-1,3,4-oxadiazol-2-yl)benzo[d]ox-azol-2-amine] | ≤ 100 nM
33 | FC1CCN(Cc2nnc(Nc3nc4cc(C(F)(F)F)ccc4o3)o2)C1 (centres unmarked) [Example 79, N-(5-((3-Fluoropyrrolidin-1-yl)methyl)-1,3,4-oxadiazol-2-yl)-5-(trifluoromethyl)benzo[d]oxazol-2-amine] | ≤ 1000 nM
34 | O=C(c1csc(Nc2nc3cc(C(F)(F)F)ccc3o2)n1)N1CCNCC1 [Example 95, Piperazin-1-yl(2-((5-(trifluoromethyl)benzo[d]oxazol-2-yl)amino)thiazol-4-yl)methanone hydrochloride] | ≤ 1000 nM
35 | NC(=O)c1csc(Nc2nc3ccc(Cl)cc3o2)n1 [Example 33, 2-((6-Chlorobenzo[d]oxazol-2-yl)amino)thiazole-4-carboxamide] | ≤ 1000 nM
36 | COc1cc2oc(Nc3nnco3)nc2cc1F [Example 206, 5-Fluoro-6-methoxy-N-(1,3,4-oxadiazol-2-yl)benzo[d]oxa-zol-2-amine] | ≤ 1000 nM
37 | FC(F)(F)c1cc2oc(Nc3nnc(C4CC4)o3)nc2cn1 [Example 51, N-(5-Cyclopropyl-1,3,4-oxadiazol-2-yl)-6-(trifluoromethyl)oxazolo[4,5-c]pyridin-2-amine] | ≤ 1000 nM
38 | COCCOc1ccc2nc(Nc3nnco3)oc2c1 [Example 193, 6-(2-methoxyethoxy)-N-(1,3,4-oxadiazol-2-yl)benzo[d]oxazol-2-amine] | ≤ 1000 nM
39 | c1nnc(Nc2nc3ccc(N4CCCC4)cc3o2)o1 [Example 183, N-(1,3,4-oxadiazol-2-yl)-6-(pyrrolidin-1-yl)benzo[d]ox-azol-2-amine] | ≤ 1000 nM
40 | O=C(c1nnc(Nc2nc3c(Cl)cc(Cl)cc3o2)o1)N1CCCC1 [Example 133, (5-((4,6-Dichlorobenzo[d]oxazol-2-yl)amino)-1,3,4-oxadiazol-2-yl)(pyrrolidin-1-yl)methanone] | ≤ 1000 nM
41 | NC(=O)c1csc(Nc2nc3cc(Cl)ccc3o2)n1 [Example 99, 2-((5-Chlorobenzo[d]oxazol-2-yl)amino)thiazole-4-carboxamide] | ≤ 1000 nM
42 | Cc1nnc(Nc2nc3cc(C(F)(F)F)ccc3n2C)o1 [Example 88, 5-Methyl-N-(1-methyl-5-(trifluoromethyl)-1H-benzo[d]imidazol-2-yl)-1,3,4-oxadiazol-2-amine] | ≤ 1000 nM
43 | COc1cc2oc(Nc3nnco3)nc2cc1C [Example 208, 6-Methoxy-5-methyl-N-(1,3,4-oxadiazol-2-yl)benzo[d]oxa-zol-2-amine] | ≤ 1000 nM
44 | OCc1ccc2nc(Nc3nnco3)oc2c1 [Example 181, (2-((1,3,4-Oxadiazol-2-yl)amino)ben-zo[d]oxazol-6-yl)methanol] | ≤ 10000 nM
45 | CN1CCc2nc(Nc3nc4cc(C(F)(F)F)ccc4o3)oc2C1 [Example 155, 5-Methyl-N-(5-(trifluoromethyl)benzo[d]oxazol-2-yl)-4,5,6,7-tetrahydrooxazolo[5,4-c]pyridin-2-amine] | ≤ 1000 nM
46 | Clc1ccc2nc(Nc3ccsn3)oc2c1 [Example 222, 6-Chloro-N-(isothiazol-3-yl)benzo[d]oxazol-2-amine] | ≤ 1000 nM
47 | O=C(Nc1cccc(Cl)c1)c1csc(Nc2nc3cc(C(F)(F)F)ccc3o2)n1 [Example 10, N-(3-Chlorophenyl)-2-((5-(trifluoromethyl)benzo[d]oxazol-2-yl)amino)thiazole-4-carboxamide] | ≤ 1000 nM
